# Source: US10813894B2, “Methods of inhibiting pain” (The Regents of the University of California, priority 2015, dated 2020)
# “Also recorded” adds a separate entry of the source.
# What was measured:
# sEH = target: T1, sEH (Homo sapiens, UniProt P34913); test: Inhibition of sEH, assay not specified; assay type: biochemical
# T1 sequence (P34913 1-555): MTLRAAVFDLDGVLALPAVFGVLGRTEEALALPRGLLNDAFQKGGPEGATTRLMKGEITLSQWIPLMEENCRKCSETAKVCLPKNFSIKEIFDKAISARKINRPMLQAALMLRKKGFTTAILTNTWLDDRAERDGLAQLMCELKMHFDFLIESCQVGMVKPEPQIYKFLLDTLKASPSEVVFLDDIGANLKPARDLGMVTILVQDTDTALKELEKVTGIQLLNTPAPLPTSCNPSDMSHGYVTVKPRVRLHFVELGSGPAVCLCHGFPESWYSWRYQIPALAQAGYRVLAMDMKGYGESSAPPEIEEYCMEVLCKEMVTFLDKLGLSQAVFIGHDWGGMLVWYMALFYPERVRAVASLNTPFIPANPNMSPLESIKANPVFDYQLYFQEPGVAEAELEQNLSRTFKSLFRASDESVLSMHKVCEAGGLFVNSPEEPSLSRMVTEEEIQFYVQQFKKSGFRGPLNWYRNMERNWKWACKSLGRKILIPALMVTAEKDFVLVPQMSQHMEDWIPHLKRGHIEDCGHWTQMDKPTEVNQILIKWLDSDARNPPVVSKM
# Excerpt: “Soluble epoxide hydrolase” (“sEH”) is an epoxide hydrolase which in endothelial and smooth muscle cells converts EETs to dihydroxy derivatives called dihydroxyeicosatrienoic acids (“DHETs”). The cloning and sequence of the murine sEH is set forth in Grant et al., J. Biol. Chem. 268(23):17628-17633 (1993). The cloning, sequence, and accession numbers of the human sEH sequence are set forth in Beetham et al., Arch. Biochem. Biophys. […] The amino acid sequence of human sEH is SEQ ID NO.:1, while the nucleic acid sequence encoding the human sEH is SEQ ID NO.:2. […] Unless otherwise specified, as used herein, the terms “soluble epoxide hydrolase” and “sEH” refer to human sEH.
# Derivatives of urea are transition state mimetics that form a preferred group of sEH inhibitors. […] Any particular urea derivative or other compound can be easily tested for its ability to inhibit sEH by standard assays, such as those discussed herein. The production and testing of urea and carbamate derivatives as sEH inhibitors is set forth in detail in, for example, Morisseau et al., Proc Natl Acad Sci (USA) 96:8849-8854 (1999).
# Any of a number of standard assays for determining epoxide hydrolase activity can be used to determine inhibition of sEH. […] Suitable in vitro assays are described in Zeldin et al., J Biol. Chem. 268:6402-6407 (1993). […]
# type I diabetic rats = test: STZ induced type I diabetic rat neuropathic pain model, electronic von Frey test; conditions: for Drug reduction index: combination of 4-PBA and TPPU, CompuSyn
# Method: Data are presented as mean±SEM in all subsequent figures throughout the text.
# (B) The CompuSyn software was used to construct an isobologram of the interaction. ED50 values calculated for each drug are plotted on x and y-axis respectively. […] (C) Combination index (CI) is reported as the key parameter of the synergistic interaction.
# Standard nociceptive measurements were performed in all experiments. For the von Frey test an electronic rigid tip instrument was used (IITC, Woodland Hills Calif.). […] The baseline withdrawal thresholds before STZ administration were taken as 100% response and all mean nociceptive thresholds were converted to percentage values. Inhibitors were administered by intraperitoneal route after completely dissolving in vehicle PEG400 (1 mL/kg).
# Results are depicted as mean±SEM. CompuSyn software package was used to quantify the synergy between drugs.
# healthy rats [1] = test: Intraplantar tunicamycin (Tm) induced pain model, mechanical withdrawal; assay type: in vivo, rat
# Method: (§1) FIGS. 7A-F illustrate that ER stress inducer tunicamycin (Tm) is rapid, intense and selective in generating pain behavior. (A) Tm is administered into the midsection of one hind paw in a volume of 10 μL (20 μg). Mechanical withdrawal of ipsi- and contralateral paws are then monitored over a period of 6 h until the ipsilateral paw measurements returned to baseline values. The withdrawal data are presented as gram force required for inducing a withdrawal reflex response. (B) Decreasing doses of Tm generated less intense allodynia which subsided faster than the highest dose. […] (D) Intraplantar Tm induced pain is reversible with sEH inhibitor (lh prior to Tm, i.p. administration) in a dose dependent manner. (E) Expectedly this pain is reversible with chemical chaperone 4-PBA. The basis for the increase above the baseline threshold in this group is not investigated.
# healthy rats [2] = test: von Frey mechanical withdrawal threshold in healthy rats; conditions: 4-PBA 40 mg/kg
# Method: Standard nociceptive measurements were performed in all experiments. For the von Frey test an electronic rigid tip instrument was used (IITC, Woodland Hills Calif.). For the thermal nociceptive thresholds the modified Hargreaves' method was used. The baseline withdrawal thresholds before STZ administration were taken as 100% response and all mean nociceptive thresholds were converted to percentage values. Inhibitors were administered by intraperitoneal route after completely dissolving in vehicle PEG400 (1 mL/kg).
# healthy rats [3] = test: Intraplantar dimethylcelecoxib (DMCx) induced pain model; assay type: in vivo, rat
# Method: FIGS. 9A-C illustrate that mechanistically different ER stress inducer dimethylcelecoxib (DMCx) generates a rapid and intense but sEHI and cox-2 inhibitor reversible pain phenotype. (A) DMCx is administered into the midsection of one hind paw in a volume of 10 μL (20 μg). Mechanical withdrawal of ipsi- and contralateral paws are then monitored over a period of 4 h. The withdrawal data are presented as gram force required for inducing a withdrawal reflex response. (B) Intraplantar DMCx induced pain is reversible with sEH inhibitor (1 h prior to Tm, i.p. administration) in a dose dependent manner.
# healthy rats [4] = test: Intraplantar Tm, thermal withdrawal threshold (modified Hargreaves' test); assay type: in vivo, rat
# Method: as §1
molecule,measurement,setting,value
"CCCCCCCCCCCCNC(=O)NC12CC3CC(CC(C3)C1)C2 [ADU, N-Adamantyl-N′-dodecyl urea]",Activity on sEH,sEH,particularly high activity
"O=C(O)CCCc1ccccc1 [Compound 4-PBA, 4-phenyl butyric acid]",Drug reduction index,type I diabetic rats; at ED50,2.2 fold
same,Drug reduction index,type I diabetic rats; at ED97,3.9 fold
same,Allodynia / antinociception (von Frey withdrawal threshold),"type I diabetic rats; diabetic rats, i.p., 4-PBA 10-100 mg/kg, TPPU 0.01-1 mg/kg",dose and time dependent antinociception occurs within minutes; also recorded: reduce allodynia in a dose and time dependent manner
same,Antinociceptive efficacy at the highest dose,"type I diabetic rats; diabetic rats, systemic delivery, highest dose",full efficacy and rapid onset
same,Effect on pain-related behavior at 10 mg/kg,"type I diabetic rats; type I diabetic rats, 10 mg/kg, 6 h time period",ineffective
same,Reversal of Tm induced sensitivity to mechanical stimuli,"healthy rats [1]; pre-administration i.p. 1 h prior to Tm, celecoxib 30 mg/kg",reversed; also recorded: reversible
same,Acute mechanical withdrawal threshold in healthy rats,healthy rats [2],not antinociceptive; also recorded: does not result in change of acute mechanical withdrawal threshold
"Cc1ccc(C)c(-c2cc(C(F)(F)F)nn2-c2ccc(S(N)(=O)=O)cc2)c1 [DMCx, dimethyl-celecoxib]",Swelling after intraplantar administration,healthy rats [3],Swelling of the ipsilateral paw
tunicamycin [Tm],Heat responses / thermal withdrawal threshold of the ipsilateral paw,healthy rats [4],rapid and sustained loss of heat responses; also recorded: notable increase in thermal withdrawal threshold
same,Induction of pain by intraplantar administration,healthy rats [1]; hind paw of healthy rats,induce a significant degree of pain
same,Swelling after intraplantar administration,healthy rats [1]; intraplantar Tm,Minimal amount of swelling
same,Mechanical withdrawal threshold after Tm,"healthy rats [1]; intraplantar, 20 μg, ipsilateral paw",25 % of the baseline levels
